From patent US9919998B2, “Antibacterial agents: Nα-aroyl-N-aryl-phenylalaninamides” (priority 2014, dated 2018)
Converted amounts (≈) assume the structure as drawn. “And” between values parts separate entries of the source, which are not always exact repeats. Identical values can stand only once. Like-named read-outs stand apart in the source and are kept apart here.

How the values were obtained:
[1] = molecular target: Mycobacterium tuberculosis RNA polymerase (Mycobacterium tuberculosis, UniProt P9WGY7+P9WGY9); assay: Run-off transcription assay with Mycobacterium tuberculosis RNA polymerase (radiochemical); format: biochemical; settings: radiochemical transcription assays, M. tuberculosis RNA polymerase
Protocol: Run-off transcription assays with Mycobacterium tuberculosis RNA polymerase were performed using reaction mixtures containing (10 μl): 0-100 μM test compound, 75 nM Mycobacterium tuberculosis RNA polymerase core enzyme, 300 nM Mycobacterium tuberculosis σ^A, 20 nM 130 bp DNA fragment containing positions −100 to −1 of the bacteriophage […] N25 promoter followed by positions +1 to +30 of the lacUV5-15 promoter of [Mukhopadhyay, J., Kapanidis, A., Mekler, V., Kortkhonjia, E., Ebright, Y., Ebright, R. (2001) Cell 106, 453-463], 25 nM [alpha-^32P]UTP (600 Bq/pmol) for an initial 2 min at 37° C. and 100 μM [alpha-^32P]UTP (6 Bq/pmol) for a subsequent 5 min at 37° C., 100 μM ATP, 100 μM GTP, 100 μM UTP, 100 μM CTP, 40 mM Tris-HCl, pH 8.0, 80 mM NaCl, 5 mM MgCl2, 2.5 mM DTT, and 12.7% glycerol. Reactions were terminated by addition of […] 80% formamide, 10 mM EDTA, 0.04% bromophenol blue, and 0.04% xylene cyanol, followed by heating for 5 min at 90° C. Reaction products were resolved by 15% urea-PAGE, and quantified using a storage-phosphor scanner.

[2] = system: Mycobacterium smegmatis ATCC 19420; assay: Broth microdilution MIC, M. smegmatis; format: cell-based; settings: Mycolicibacterium smegmatis
Excerpt: (§1) MICs in Mycobacterium smegmatis ATCC 19420 and Mycobacterium smegmatis ATCC 19420 derivatives were quantified using broth microdilution assays as described [Clinical and Laboratory Standards Institute (CLSI/NCCLS) (2009) Methods for Dilution Antimicrobial Susceptibility Tests for Bacteria That Grow Aerobically; Approved Standard, Eighth Edition. CLIS Document M07-A8 (CLIS, Wayne Pa.)].

[3] = system: rifampin-resistant mutants, derivatives of M. smegmatis ATCC19420; assay: MICs in rifampin-resistant mutants (cross-resistance levels); format: cell-based, Mycobacterium smegmatis
Excerpt: as §1

[4] = system: Vero E6 ATCC CRL1586 cells; assay: Mammalian-cell cytotoxicity, minimal cytotoxic concentration (CellTiter96); format: cell-based
Protocol: Minimal cytotoxic concentrations (MCCs) against mammalian cells in culture were determined using Vero E6 ATCC CRL1586 cells and the CellTiter96 assay kit (Promega, Inc.). […]

[5] = system: Mycobacterium avium ATCC 25291; assay: Microplate Alamar Blue assay (MABA) MIC, M. avium; format: cell-based; settings: ATCC25291, M. avium ATCC 25291
Excerpt: (§2) Minimal inhibitory concentrations (MICs) in Mycobacterium tuberculosis H37Rv and Mycobacterium avium ATCC 25291 were quantified using microplate Alamar Blue assays as described (MABA; [Collins, L. & Franzblau, S. (1997) Microplate Alamar Blue assay versus BACTEC 460 system for high-throughput screening of compounds against Mycobacterium tuberculosis and Mycobacterium avium. Antimicrob. Agents Chemother. 41, 1004-1009]).

[6] = system: Mycobacterium tuberculosis H37Rv; assay: Microplate Alamar Blue assay (MABA) MIC, M. tuberculosis; format: cell-based
Excerpt: as §2

[7] = read-out: Inhibition of mycobacterial RNA polymerase (IC50s)
[8] = ATCC19420, broth microdilution assays, M. smegmatis ATCC19420, read-out: Inhibition of mycobacterial growth in culture (MICs)
[9] = read-out: MIC Mycobacterium tuberculosis H37Rv
[10] = ATCC19420, M. smegmatis ATCC 19420, read-out: MIC Mycobacterium smegmatis ATCC 19420

Mycobacterium tuberculosis RNA polymerase, sequence (P9WGZ1 whole entry, the tested form may be a part): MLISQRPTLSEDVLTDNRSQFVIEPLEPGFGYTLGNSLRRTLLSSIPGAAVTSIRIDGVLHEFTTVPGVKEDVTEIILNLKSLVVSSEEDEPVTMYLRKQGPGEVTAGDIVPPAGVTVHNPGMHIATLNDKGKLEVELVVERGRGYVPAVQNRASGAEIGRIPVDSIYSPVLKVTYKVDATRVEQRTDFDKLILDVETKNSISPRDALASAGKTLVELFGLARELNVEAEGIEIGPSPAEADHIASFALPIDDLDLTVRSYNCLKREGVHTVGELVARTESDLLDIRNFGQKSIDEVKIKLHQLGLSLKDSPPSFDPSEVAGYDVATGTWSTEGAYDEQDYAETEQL
Mycobacterium tuberculosis RNA polymerase, sequence (P9WGY5 whole entry, further chain, the tested form may be a part): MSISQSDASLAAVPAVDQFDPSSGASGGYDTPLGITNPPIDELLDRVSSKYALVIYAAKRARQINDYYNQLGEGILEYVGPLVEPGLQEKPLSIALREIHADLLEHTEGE
Mycobacterium tuberculosis RNA polymerase, sequence (P9WGY9 whole entry, the tested form may be a part): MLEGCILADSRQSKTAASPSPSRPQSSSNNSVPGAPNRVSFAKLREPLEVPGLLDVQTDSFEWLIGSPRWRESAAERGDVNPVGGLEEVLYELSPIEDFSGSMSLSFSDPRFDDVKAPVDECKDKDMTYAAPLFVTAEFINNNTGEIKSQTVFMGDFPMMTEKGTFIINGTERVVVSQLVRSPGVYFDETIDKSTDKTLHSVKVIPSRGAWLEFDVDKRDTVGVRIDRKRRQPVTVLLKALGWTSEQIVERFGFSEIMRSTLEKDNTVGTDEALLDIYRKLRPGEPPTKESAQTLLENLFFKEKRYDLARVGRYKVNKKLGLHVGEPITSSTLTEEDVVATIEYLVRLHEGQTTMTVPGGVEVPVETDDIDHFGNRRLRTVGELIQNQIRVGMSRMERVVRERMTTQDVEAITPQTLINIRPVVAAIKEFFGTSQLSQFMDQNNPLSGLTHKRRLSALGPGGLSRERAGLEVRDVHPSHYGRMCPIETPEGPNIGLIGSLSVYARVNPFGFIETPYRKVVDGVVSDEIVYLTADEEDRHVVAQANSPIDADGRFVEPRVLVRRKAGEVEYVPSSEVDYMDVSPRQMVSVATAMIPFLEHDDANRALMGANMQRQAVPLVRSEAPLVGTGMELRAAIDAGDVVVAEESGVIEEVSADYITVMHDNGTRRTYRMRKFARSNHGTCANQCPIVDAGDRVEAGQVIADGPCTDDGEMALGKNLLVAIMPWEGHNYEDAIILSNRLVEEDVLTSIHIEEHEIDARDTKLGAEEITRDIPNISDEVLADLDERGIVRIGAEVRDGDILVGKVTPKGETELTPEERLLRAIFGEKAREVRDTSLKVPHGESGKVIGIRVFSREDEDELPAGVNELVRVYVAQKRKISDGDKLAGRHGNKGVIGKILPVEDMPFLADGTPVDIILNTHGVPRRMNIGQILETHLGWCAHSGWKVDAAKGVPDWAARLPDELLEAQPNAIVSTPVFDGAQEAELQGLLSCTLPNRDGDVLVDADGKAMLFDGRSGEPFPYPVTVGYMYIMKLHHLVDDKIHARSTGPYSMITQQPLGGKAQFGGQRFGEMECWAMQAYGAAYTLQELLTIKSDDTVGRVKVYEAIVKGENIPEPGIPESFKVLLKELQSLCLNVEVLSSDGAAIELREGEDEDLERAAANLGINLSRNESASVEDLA
Mycobacterium tuberculosis RNA polymerase, sequence (P9WGI1 whole entry, further chain, the tested form may be a part): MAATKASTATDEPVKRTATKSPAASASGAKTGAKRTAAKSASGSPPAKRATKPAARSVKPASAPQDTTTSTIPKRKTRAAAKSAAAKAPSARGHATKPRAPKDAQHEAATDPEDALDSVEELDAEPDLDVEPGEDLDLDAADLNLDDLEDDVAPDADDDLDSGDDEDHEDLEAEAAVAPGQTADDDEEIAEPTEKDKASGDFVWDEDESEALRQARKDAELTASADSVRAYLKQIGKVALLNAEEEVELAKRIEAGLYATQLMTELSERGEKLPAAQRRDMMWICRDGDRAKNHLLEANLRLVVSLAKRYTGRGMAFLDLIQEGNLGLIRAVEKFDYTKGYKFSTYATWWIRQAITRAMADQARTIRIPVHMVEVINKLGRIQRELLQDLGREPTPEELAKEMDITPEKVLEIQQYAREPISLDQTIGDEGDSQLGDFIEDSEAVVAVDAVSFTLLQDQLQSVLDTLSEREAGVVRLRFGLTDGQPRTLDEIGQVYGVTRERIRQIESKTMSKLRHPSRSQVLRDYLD
Mycobacterium tuberculosis RNA polymerase, sequence (P9WGY7 whole entry, the tested form may be a part): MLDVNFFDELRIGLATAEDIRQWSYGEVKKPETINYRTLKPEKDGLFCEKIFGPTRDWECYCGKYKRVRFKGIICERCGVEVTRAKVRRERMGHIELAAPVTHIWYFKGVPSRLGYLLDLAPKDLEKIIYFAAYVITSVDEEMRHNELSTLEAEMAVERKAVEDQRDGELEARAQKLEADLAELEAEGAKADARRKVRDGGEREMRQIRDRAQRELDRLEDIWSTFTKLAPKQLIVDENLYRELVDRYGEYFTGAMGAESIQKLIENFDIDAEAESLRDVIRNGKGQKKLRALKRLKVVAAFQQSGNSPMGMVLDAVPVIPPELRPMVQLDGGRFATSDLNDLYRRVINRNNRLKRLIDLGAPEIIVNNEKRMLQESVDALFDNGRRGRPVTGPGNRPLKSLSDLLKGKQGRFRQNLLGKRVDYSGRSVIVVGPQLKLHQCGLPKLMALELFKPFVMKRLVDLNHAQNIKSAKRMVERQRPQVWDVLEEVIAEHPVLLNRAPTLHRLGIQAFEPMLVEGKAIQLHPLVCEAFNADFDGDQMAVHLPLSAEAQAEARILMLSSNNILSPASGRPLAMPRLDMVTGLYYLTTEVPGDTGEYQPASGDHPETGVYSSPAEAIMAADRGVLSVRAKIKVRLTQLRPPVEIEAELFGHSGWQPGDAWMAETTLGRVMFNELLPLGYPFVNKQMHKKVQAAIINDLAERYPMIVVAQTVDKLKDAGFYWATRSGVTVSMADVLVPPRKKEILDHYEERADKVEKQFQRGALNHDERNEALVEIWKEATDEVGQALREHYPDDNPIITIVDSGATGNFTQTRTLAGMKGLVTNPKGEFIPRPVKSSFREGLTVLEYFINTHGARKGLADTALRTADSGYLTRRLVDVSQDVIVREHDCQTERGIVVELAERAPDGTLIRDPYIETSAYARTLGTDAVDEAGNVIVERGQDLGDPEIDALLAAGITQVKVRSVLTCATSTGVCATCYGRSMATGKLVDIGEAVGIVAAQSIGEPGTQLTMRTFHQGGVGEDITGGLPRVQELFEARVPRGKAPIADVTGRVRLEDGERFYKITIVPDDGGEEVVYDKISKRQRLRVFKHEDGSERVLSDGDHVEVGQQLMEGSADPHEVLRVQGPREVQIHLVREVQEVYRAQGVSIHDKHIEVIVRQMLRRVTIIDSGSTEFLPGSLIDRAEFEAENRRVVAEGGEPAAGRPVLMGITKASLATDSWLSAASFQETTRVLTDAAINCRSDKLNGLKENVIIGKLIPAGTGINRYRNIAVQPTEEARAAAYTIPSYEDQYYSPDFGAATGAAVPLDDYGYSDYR

Row | Structure (SMILES) | IC50 [1, 7] | MIC [2, 8] [µg/mL] | cross-resistance of rifampin-resistant mutants to the compound [3] | MCC mammalian cells Vero E6 ATCC CRL1586 [4] [µg/mL] | MIC [5] [µg/mL] | MIC [6, 9] [µg/mL] | MIC [2, 10] [µg/mL] | IC50 ([1]; Inhibition of mycobacterial RNA polymerase (IC50s)) [nM] | MIC ([6]; MABA-MIC assays, read-out: Inhibition of mycobacterial growth in culture (MICs)) [µg/mL]
1 | O=C(Nc1ccccc1)[C@H](Cc1ccccc1)Nc1ccccc1 [Nα-phenyl-N-phenyl-phenylalaninamide] | ≥ 100 nM | ≥ 0.3 |  |  |  |  |  |  | 
2 | Cc1ccccc1NC(=O)C(Cc1ccccc1)NC(=O)c1ccccn1 (centres unmarked) [II-12] |  |  | No rifampin-resistant mutant was found to exhibit cross-resistance | >36 | 50 (≈ 139 µM) | 25 (≈ 69.6 µM) | 3.12 (≈ 8.69 µM) |  | 
3 | O=C(NC(Cc1ccccc1)C(=O)Nc1cccc2c1OCCO2)c1ccccc1 (centres unmarked) [IX-5, N-(1-((2,3-dihydrobenzo[b][1,4]dioxin-5-yl)amino)-1-oxo-3-phenylpropan-2-yl)benzamide] |  |  | No rifampin-resistant mutant was found to exhibit cross-resistance | >40 | 6.25 (≈ 15.5 µM) | 6.25 (≈ 15.5 µM) | 0.39 (≈ 0.969 µM) |  | 
4 | CCCOc1ccccc1NC(=O)C(Cc1ccccc1)NC(=O)c1ccccc1 (centres unmarked) [I-39] |  |  | No rifampin-resistant mutant was found to exhibit cross-resistance | 20 | > 50 | 6.25 (≈ 15.5 µM) | 0.78 (≈ 1.94 µM) |  | 
5 | COc1ccccc1C(=O)NC(Cc1ccccc1)C(=O)Nc1ccccc1C (centres unmarked) [I-25] |  |  | No rifampin-resistant mutant was found to exhibit cross-resistance | 57 |  | > 50 | 6.25 (≈ 16.1 µM) |  | 
6 | Cc1ccc(NC(=O)C(Cc2ccccc2)NC(=O)c2ccco2)cc1 (centres unmarked) [AAP2] |  |  |  |  |  |  |  | 5300 | 50 (≈ 144 µM)
7 | Cc1ccccc1NC(=O)C(Cc1ccccc1)NC(=O)c1cccc2[nH]ccc12 (centres unmarked) [II-39] |  |  | No rifampin-resistant mutant was found to exhibit cross-resistance | 36 | 12.5 (≈ 31.4 µM) | 12.5 (≈ 31.4 µM) | 0.39 (≈ 0.981 µM) |  | 
8 | Cc1ccccc1NC(=O)C(Cc1ccc(OC(=O)c2ccccc2)cc1)NC(=O)c1ccccc1 (centres unmarked) [I-236, 4-(2-benzamido-3-oxo-3-(o-tolylamino)propyl)phenyl benzoate] |  |  | No rifampin-resistant mutant was found to exhibit cross-resistance | >48 |  | 25 (≈ 52.2 µM) | 0.39 (≈ 0.815 µM) |  | 
9 | Cc1ccc(Br)cc1NC(=O)C(Cc1ccccc1)NC(=O)c1ccccc1 (centres unmarked) [I-97] |  |  | No rifampin-resistant mutant was found to exhibit cross-resistance |  | > 50 | 25 (≈ 57.2 µM) | 0.78 (≈ 1.78 µM) |  | 
10 | O=C(NC(Cc1ccccc1)C(=O)Nc1cccc2cnccc12)c1ccccc1 (centres unmarked) [IX-3, N-(1-(isoquinolin-5-ylamino)-1-oxo-3-phenylpropan-2-yl)benzamide] |  |  | No rifampin-resistant mutant was found to exhibit cross-resistance | >40 | 6.25 (≈ 15.8 µM) | 3.13 (≈ 7.91 µM) | 0.195 (≈ 0.493 µM) |  | 
11 | Cc1ccccc1NC(=O)C(Cc1ccccc1)NC(=O)c1cccnc1 (centres unmarked) [II-13] |  |  | No rifampin-resistant mutant was found to exhibit cross-resistance | >36 |  | > 50 | 6.25 (≈ 17.4 µM) |  | 
12 | Cc1ccccc1NC(=O)C(Cc1ccccc1)NC(=O)c1ccccc1Cl (centres unmarked) [I-91] |  |  | No rifampin-resistant mutant was found to exhibit cross-resistance | 19 | > 50 | > 50 | 0.39 (≈ 0.993 µM) |  | 
13 | O=C(NC(Cc1ccccc1)C(=O)Nc1cccc2ncccc12)c1ccccc1 (centres unmarked) [IX-4, N-(1-oxo-3-phenyl-1-(quinolin-5-ylamino)propan-2-yl)benzamide] |  |  | No rifampin-resistant mutant was found to exhibit cross-resistance | >40 | > 50 | 12.5 (≈ 31.6 µM) | 0.78 (≈ 1.97 µM) |  | 
14 | O=C(NC(Cc1ccccc1)C(=O)Nc1cccc2cccnc12)c1ccccc1 (centres unmarked) [IX-2, N-(1-oxo-3-phenyl-1-(quinolin-8-ylamino)propan-2-yl)benzamide] |  |  | No rifampin-resistant mutant was found to exhibit cross-resistance | >39 | > 50 | > 39 | 3.12 (≈ 7.9 µM) |  | 
15 | Cc1ccccc1NC(=O)C(Cc1ccccc1)NC(=O)c1ccccc1C (centres unmarked) [I-112] |  |  | No rifampin-resistant mutant was found to exhibit cross-resistance | 13 | > 50 | > 50 | 0.39 (≈ 1.05 µM) |  | 
16 | Cc1ncccc1NC(=O)C(Cc1ccccc1)NC(=O)c1ccccc1 (centres unmarked) [II-5] |  |  | No rifampin-resistant mutant was found to exhibit cross-resistance | >36 | > 50 | 50 (≈ 139 µM) | 3.12 (≈ 8.68 µM) |  | 
17 | Cc1ccccc1NC(=O)C(Cc1ccccc1)NC(=O)c1ccccc1Br (centres unmarked) [I-102] |  |  | No rifampin-resistant mutant was found to exhibit cross-resistance | 29 |  | > 50 | 3.12 (≈ 7.15 µM) |  | 
18 | COc1ccccc1NC(=O)C(Cc1ccccc1)NC(=O)c1ccccc1 (centres unmarked) [I-17] |  |  | No rifampin-resistant mutant was found to exhibit cross-resistance | >37 | 6.25 (≈ 16.7 µM) | 3.13 (≈ 8.36 µM) | 0.39 (≈ 1.04 µM) |  | 
19 | O=C(Nc1ccccn1)[C@H](Cc1ccccc1)Nc1ccccc1 | ≥ 100 nM and ~1000 nM |  |  |  |  |  |  |  | 
20 | Cc1ccccc1N[C@@H](Cc1ccccc1)C(=O)Nc1ccccc1 [Nα-(2-methylphenyl)-N-phenyl-phenylalaninamide] | ≥ 100 nM | ≥ 0.3 |  |  |  |  |  |  | 
21 | O=C(Nc1ccccc1F)[C@H](Cc1ccccc1)Nc1ccccc1 [Nα-phenyl-N-(2-fluorophenyl)-phenylalaninamide] | ≥ 100 nM | ≥ 0.3 |  |  |  |  |  |  | 
22 | Cc1c(NC(=O)C(Cc2ccccc2)NC(=O)c2ccccc2)cccc1C(F)(F)F (centres unmarked) [I-160] |  |  | No rifampin-resistant mutant was found to exhibit cross-resistance | 21 | > 50 | > 50 | 3.12 (≈ 7.33 µM) |  | 
23 | O=C(NC(Cc1ccc(O)cc1)C(=O)Nc1cccc2c1CCC2)c1ccccc1 (centres unmarked) [IX-14, N-(1-((2,3-dihydro-1H-inden-4-yl)amino)-3-(4-hydroxyphenyl)-1-oxopropan-2-yl)benzamide] |  |  | No rifampin-resistant mutant was found to exhibit cross-resistance | >40 | 12.5 (≈ 31.2 µM) | 6.25 (≈ 15.6 µM) | 0.39 (≈ 0.974 µM) |  | 
24 | CCc1ccccc1NC(=O)C(Cc1ccccc1)NC(=O)c1ccccc1 (centres unmarked) [I-115] |  |  | No rifampin-resistant mutant was found to exhibit cross-resistance | 37 | > 50 | > 50 | 0.39 (≈ 1.05 µM) |  | 
25 | O=C(Nc1ccncc1)[C@H](Cc1ccccc1)Nc1ccccc1 [Nα-phenyl-N-(4-pyridyl)-phenylalaninamide] | ≥ 100 nM | ≥ 0.3 |  |  |  |  |  |  | 
26 | O=C(NC(Cc1ccccc1)C(=O)Nc1cccc2cc[nH]c12)c1ccccc1 (centres unmarked) [II-28] |  |  | No rifampin-resistant mutant was found to exhibit cross-resistance | 13 | > 50 | 12.5 (≈ 32.6 µM) | 0.78 (≈ 2.03 µM) |  | 
27 | O=C(NC(Cc1ccccc1)C(=O)Nc1cccc2cnccc12)c1ccccc1F (centres unmarked) [IX-57, 2-fluoro-N-(1-(isoquinolin-5-ylamino)-1-oxo-3-phenylpropan-2-yl)benzamide] |  |  |  | 79 | 12.5 (≈ 30.2 µM) | 6.25 (≈ 15.1 µM) | 0.39 (≈ 0.943 µM) |  | 
